Measured values from patent US11807650B2, “NMDA receptor modulators and uses thereof” (Novartis AG, priority 2016, dated 2023).

Target: T1, human GRIN1 (transcript variant NR1-3) and GRIN2D expressed in Xenopus oocytes (Homo sapiens, UniProt O15399)
T1 construct: GenScript (GRIN2D synthesis) SC115601; host or cells: Xenopus oocytes injected with cRNA (1 GluN1 : 2 GluN2)
Experiment: NR2D oocyte potentiation assay (two-electrode voltage clamp)
Type: cell-based
Settings: 10 uM test compound; glutamate and glycine 10 μM each; holding potential −40 mV
Description: NR2D Oocyte Potentiation Assay. Xenopus oocytes (Xenopus 1, Dexter, Mich.) were initially separated from the lobes of an ovary using surgical forceps; they were then defolliculated by constant agitation at room temperature in OR-2 buffer (82.5 mM NaCl; 2.5 mM KCl; 1 mM MgCl2; 5 mM HEPES; pH 7.4) containing 2 mg/ml collagenase Type 1 (Fisher Scientific, USA) for 1.5-2 hours. The cells were then gently aspirated with a Pasteur pipette to remove the follicular tissue; this was followed by washing three times with OR-2 to remove all traces of collagenase. The oocytes were then washed in ND-96 (96 mM NaCl, 2 mM KCl, 1.8 mM CaCl2, 1 mM MgCl2, 5 mM HEPES, 50 ng/L gentamycin, 100 units/ml penicillin and 100 μg/ml streptomycin; pH 7.6) three times and this was followed by incubation in ND-96 at room temperature with mild agitation for 15 minutes; subsequently they were stored for at least 2 hours at 16° C. before sorting and selection for injection. Oocytes selected for injection were incubated overnight in ND-96 at 16° C.
The human GRIN1 (transcript variant NR1-3 (Origene, SKU #: SC115601, Rockville, Md.) and GRIN2D (NCBI locus NM_000836, sequence optimized and synthesized by GenScript) were linearized and transcribed using the mMessage mMachine kit (Life Technologies) and promoters SP6 (for GluN1) and T7 (for GluN2D). cRNAs were mixed together at a ratio of 1 GluN1:2 GluN2. Each oocyte was injected with 50 nL of cRNA and stored in ND96 (96 mM NaCl, 2 mM KCl, 1.8 mM CaCl2, 1 mM MgCl2, 5 mM HEPES, 50 ng/L gentamycin, 100 units/ml penicillin and 100 μg/ml streptomycin; pH 7.6) at 16° C. for 72 h prior to recording.
Currents were recorded using a two-electrode voltage-clamp amplifier (Oocyte Clamp OC-725C; Warner Instrument Corp, Hamden, Conn.), and digitized using Digidata 1550A and pClamp (v. 10) software (Molecular Devices, Sunnyvale, Calif.). Electrodes were filled with 3 M KCl and had resistances that ranged from 0.2-1 MO. All measurements were made at a holding potential of −40 mV. Cells were continuously perfused with oocyte recording solution containing 90 mM NaCl, 1 mM KCl, 0.5 mM BaCl2, and 10 mM HEPES (Ph 7.4). Glutamate and Glycine (co-agonists) were applied at respective concentrations of 10 μM each. Co-agonists were applied until a plateau was reached, and test compounds were then added in the continued presence of co-agonists until a new plateau was reached. After the addition of the last test compound concentration, the oocyte was washed with oocyte recording buffer. Fraction of current remaining was calculated as [(current in presence of test compound−background current)/(co-agonist current−background current)] and IC50 values were computed using Prism 6.0 (Graphpad).

T1 sequence (O15399 28-1336, other chains not shown): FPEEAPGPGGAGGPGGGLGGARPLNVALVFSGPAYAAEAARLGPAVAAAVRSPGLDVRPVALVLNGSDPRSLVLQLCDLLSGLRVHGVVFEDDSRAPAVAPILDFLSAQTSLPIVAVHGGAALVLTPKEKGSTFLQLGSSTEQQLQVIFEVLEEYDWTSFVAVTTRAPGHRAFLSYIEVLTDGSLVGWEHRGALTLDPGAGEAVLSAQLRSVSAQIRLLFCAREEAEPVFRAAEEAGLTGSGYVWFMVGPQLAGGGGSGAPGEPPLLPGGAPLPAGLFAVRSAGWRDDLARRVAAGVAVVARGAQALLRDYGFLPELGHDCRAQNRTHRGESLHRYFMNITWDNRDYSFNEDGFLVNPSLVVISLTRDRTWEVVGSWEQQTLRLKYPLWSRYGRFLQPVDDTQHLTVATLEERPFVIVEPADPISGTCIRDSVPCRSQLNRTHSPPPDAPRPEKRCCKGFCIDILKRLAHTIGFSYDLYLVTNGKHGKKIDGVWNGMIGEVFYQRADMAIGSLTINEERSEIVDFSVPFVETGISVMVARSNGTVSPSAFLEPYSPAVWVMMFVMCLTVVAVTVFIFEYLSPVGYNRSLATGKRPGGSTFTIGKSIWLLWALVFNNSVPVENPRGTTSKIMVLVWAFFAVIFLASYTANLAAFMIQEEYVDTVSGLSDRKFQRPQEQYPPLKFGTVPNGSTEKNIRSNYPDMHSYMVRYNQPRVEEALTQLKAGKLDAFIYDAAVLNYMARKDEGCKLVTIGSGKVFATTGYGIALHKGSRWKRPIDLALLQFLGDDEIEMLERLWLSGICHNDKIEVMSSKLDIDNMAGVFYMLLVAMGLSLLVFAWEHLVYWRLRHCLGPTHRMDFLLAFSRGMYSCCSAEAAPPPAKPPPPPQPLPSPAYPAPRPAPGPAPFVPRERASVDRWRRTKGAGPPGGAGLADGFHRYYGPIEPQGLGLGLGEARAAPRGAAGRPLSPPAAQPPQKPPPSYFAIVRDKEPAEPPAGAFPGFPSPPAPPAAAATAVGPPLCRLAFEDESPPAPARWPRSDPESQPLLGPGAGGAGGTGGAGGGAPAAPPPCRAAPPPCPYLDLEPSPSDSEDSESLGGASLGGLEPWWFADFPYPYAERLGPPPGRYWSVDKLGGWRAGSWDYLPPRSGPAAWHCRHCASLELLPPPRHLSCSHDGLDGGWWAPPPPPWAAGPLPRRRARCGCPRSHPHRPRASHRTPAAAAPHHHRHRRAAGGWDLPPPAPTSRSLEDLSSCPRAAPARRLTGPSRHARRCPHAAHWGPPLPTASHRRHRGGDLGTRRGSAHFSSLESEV

Compound	activation at 10 µM [%]	NR2D Oocyte % Potentiation @ 10 uM
CSCC1COc2nc(-c3cnc(C(C)(C)C)c(F)c3)c(C#N)c(=O)n2C1 (centres unmarked) [Example 164, 8-(6-(tert-butyl)-5-fluoropyridin-3-yl)-3-((methylthio)methyl)-6-oxo-3,4-dihydro-2H,6H-pyrimido[2,1-b][1,3]oxazine-7-carbonitrile]	10 to 100	–
CCOC(C)(C)c1ccc(-c2nc3n(c(=O)c2C#N)CCCS3)cn1 [Example 122, 8-(6-(2-ethoxypropan-2-yl)pyridin-3-yl)-6-oxo-3,4-dihydro-2H,6H-pyrimido[2,1-b][1,3]thiazine-7-carbonitrile]	–	Inhibitor
CC(C)(C)c1ncc(-c2cc3n(c(=O)c2C#N)CCCS3)cc1F [Example 102, 8-(6-(tert-butyl)-5-fluoropyridin-3-yl)-6-oxo-3,4-dihydro-2H,6H-pyrido[2,1-b][1,3]thiazine-7-carbonitrile]	> 1000	–
CC(C)(C)c1ccc(-c2cc(=O)n3ccccc3n2)cc1 [Example 12, 2-(4-(tert-butyl)phenyl)-4H-pyrido[1,2-a]pyrimidin-4-one]	10 to 100	–
CN1CSc2nc(-c3cnc(C(C)(C)C)nc3)c(C#N)c(=O)n2C1 [Example 10, 8-(2-(tert-butyl)pyrimidin-5-yl)-3-methyl-6-oxo-3,4-dihydro-2H,6H-pyrimido[2,1-b][1,3,5]thiadiazine-7-carbonitrile]	10 to 100	–
CN1CSc2nc(-c3ccc(C(C)(C)C)cc3)c(C#N)c(=O)n2C1 [Example 6, 8-(4-(tert-butyl)phenyl)-3-methyl-6-oxo-3,4-dihydro-2H,6H-pyrimido[2,1-b][1,3,5]thiadiazine-7-carbonitrile]	10 to 100	–
Cc1ccc2nc(-c3cnc(C(C)(C)C)nc3)c(C#N)c(=O)n2c1 [Example 22, 2-(2-(tert-butyl)pyrimidin-5-yl)-7-methyl-4-oxo-4H-pyrido[1,2-a]pyrimidine-3-carbonitrile]	100 to 500	–
C[C@@H]1CSc2nc(-c3cnc(C(C)(C)C)c(F)c3)c(C#N)c(=N)n2C1 [Example 113, (S)-8-(6-(tert-butyl)-5-fluoropyridin-3-yl)-6-imino-3-methyl-3,4-dihydro-2H,6H-pyrimido[2,1-b][1,3]thiazine-7-carbonitrile]	> 1000	–
C[C@@H]1CSc2cc(-c3cnc(C(C)(C)C)nc3)c(C#N)c(=O)n2C1 [Example 105, (S)-8-(2-(tert-butyl)pyrimidin-5-yl)-3-methyl-6-oxo-3,4-dihydro-2H,6H-pyrido[2,1-b][1,3]thiazine-7-carbonitrile]	> 1000	–
CC1CSc2cc(-c3ccc(C(C)(C)C)nc3)c(C#N)c(=O)n2C1 (centres unmarked) [Example 69, 8-(6-(tert-butyl)pyridin-3-yl)-3-methyl-6-oxo-3,4-dihydro-2H,6H-pyrido[2,1-b][1,3]thiazine-7-carbonitrile]	> 1000	–
CC(CF)(CF)c1ccc(-c2nc3n(c(=O)c2C#N)CCCS3)cn1 [Example 156, 8-(6-(1,3-difluoro-2-methylpropan-2-yl)pyridin-3-yl)-6-oxo-3,4-dihydro-2H,6H-pyrimido[2,1-b][1,3]thiazine-7-carbonitrile]	100 to 500	–
CC(C)(C)c1ccc(-c2cc3n(c(=O)c2C#N)CCCS3)cn1 [Example 70, 8-(6-(tert-butyl)pyridin-3-yl)-6-oxo-3,4-dihydro-2H,6H-pyrido[2,1-b][1,3]thiazine-7-carbonitrile]	> 1000	–
C[C@@H]1CSc2cc(-c3cnc(C(C)(C)C)c(F)c3)c(C#N)c(=O)n2C1 [Example 107, (S)-8-(6-(tert-butyl)-5-fluoropyridin-3-yl)-3-methyl-6-oxo-3,4-dihydro-2H,6H-pyrido[2,1-b][1,3]thiazine-7-carbonitrile]	500 to 1000	–
CC1CSc2cc(-c3cnc(C(C)(C)C)c(F)c3)c(C#N)c(=O)n2C1 (centres unmarked) [Example 103, 8-(6-(tert-butyl)-5-fluoropyridin-3-yl)-3-methyl-6-oxo-3,4-dihydro-2H,6H-pyrido[2,1-b][1,3]thiazine-7-carbonitrile]	> 1000	–
C[C@H]1CSc2nc(-c3cnc(C(C)(C)C)nc3)c(C#N)c(=N)n2C1 [Example 100, (R)-8-(2-(tert-butyl)pyrimidin-5-yl)-6-imino-3-methyl-3,4-dihydro-2H,6H-pyrimido[2,1-b][1,3]thiazine-7-carbonitrile]	> 1000	–
CC(C)(C)c1ccc(-c2nc3n(c(=O)c2C#N)CCCC3)cc1 [Example 23, 2-(4-(tert-butyl)phenyl)-4-oxo-6,7,8,9-tetrahydro-4H-pyrido[1,2-a]pyrimidine-3-carbonitrile]	10 to 100	–

Second part, the compound after the results:

activation at 10 µM [%]	NR2D Oocyte % Potentiation @ 10 uM	Compound
500 to 1000	–	COCC1CSc2nc(-c3ccc(C(C)(C)C)nc3)c(C#N)c(=O)n2C1 (centres unmarked) [Example 123, 8-(6-(tert-butyl)pyridin-3-yl)-3-(methoxymethyl)-6-oxo-3,4-dihydro-2H,6H-pyrimido[2,1-b][1,3]thiazine-7-carbonitrile]
500 to 1000	–	CC1CSc2nc(-c3ccc(C4(C)CC4(F)F)nc3)c(C#N)c(=O)n2C1 (centres unmarked) [Example 111, 8-[6-(2,2-difluoro-1-methyl-cyclopropyl)pyridin-3-yl]-3-methyl-6-oxo-2H,3H,4H,6H-pyimido[2,1-b] [1,3]thiazine-7-carbonitrile]
100 to 500	–	C=C(C)c1ccc(-c2nc3n(c(=O)c2C#N)CCCS3)cn1 [Example 95, 6-oxo-8-(6-(prop-1-en-2-yl)pyridin-3-yl)-3,4-dihydro-2H,6H-pyrimido[2,1-b][1,3]thiazine-7-carbonitrile]
–	Inhibitor	CC1CSc2nc(-c3ccc(N4CC(C)(C)C4)nc3)c(C#N)c(=O)n2C1 (centres unmarked) [Example 52, 8-(6-(3,3-dimethylazetidin-1-yl)pyridin-3-yl)-3-methyl-6-oxo-3,4-dihydro-2H,6H-pyrimido[2,1-b][1,3]thiazine-7-carbonitrile]
500 to 1000	–	CC1(c2ccc(-c3nc4n(c(=O)c3C#N)CCCS4)cn2)CC1 [Example 109, 8-[6-(1-methyl-cyclopropyl)pyridin-3-yl]-6-oxo-2H,3H, 4H,6H-pyrimido[2,1-b] [1,3]thiazine-7-carbonitrile]
100 to 500	–	CC(C)(C)c1ccc(-c2nc3n(c(=O)c2C#N)CC(F)(F)CS3)cn1 [Example 24, 8-(6-(tert-butyl)pyridin-3-yl)-3,3-difluoro-6-oxo-3,4-dihydro-2H,6H-pyrimido[2,1-b][1,3]thiazine-7-carbonitrile]
< 10	–	CCOC(=O)c1ccc(-c2nc3n(c(=O)c2C#N)CC(C)CS3)cn1 (centres unmarked) [Example 84, ethyl 5-(7-cyano-3-methyl-6-oxo-3,4-dihydro-2H,6H-pyrimido[2,1-b][1,3]thiazin-8-yl)picolinate]
10 to 100	–	COC(C)(C)c1ccc(-c2nc3n(c(=O)c2C#N)CCCS3)cn1 [Example 120]
< 10	–	CC1CSc2nc(-c3cccnc3C34CC(C3)C4)c(C#N)c(=O)n2C1 (centres unmarked) [Example 149, 8-(2-(bicyclo[1.1.1]pentan-1-yl)pyridin-3-yl)-3-methyl-6-oxo-3,4-dihydro-2H,6H-pyrimido[2,1-b][1,3]thiazine-7-carbonitrile]
10 to 100	–	N#Cc1c(-c2ccc(Br)nc2)nc2n(c1=O)CCCS2 [Example 57, 8-(6-bromopyridin-3-yl)-6-oxo-3,4-dihydro-2H,6H-pyrimido[2,1-b][1,3]thiazine-7-carbonitrile]
> 1000	–	CC1CSc2cc(-c3ccc(C4(C)CC4)nc3)c(C#N)c(=O)n2C1 (centres unmarked) [Example 72, 3-methyl-8-(6-(1-methylcyclopropyl)pyridin-3-yl)-6-oxo-3,4-dihydro-2H,6H-pyrido[2,1-b][1,3]thiazine-7-carbonitrile]
10 to 100	–	CC1CCc2nc(-c3ccc(C(C)(C)C)nc3)c(C#N)c(=O)n2C1 (centres unmarked) [Example 34, 2-(6-(tert-butyl)pyridin-3-yl)-7-methyl-4-oxo-6,7,8,9-tetrahydro-4H-pyrido[1,2-a]pyrimidine-3-carbonitrile]
10 to 100	–	CC1CSc2nc(-c3ccc(C(C)(C)O)nc3)c(C#N)c(=O)n2C1 (centres unmarked) [Example 85, 8-(6-(2-hydroxypropan-2-yl)pyridin-3-yl)-3-methyl-6-oxo-3,4-dihydro-2H,6H-pyrimido[2,1-b][1,3]thiazine-7-carbonitrile]
